Where “and” joins values, the source holds several entries; their conditions need not be identical. Identical values can stand only once.
Experiments:
PC3 cells = experiment: Immunoblot of HMW/LMW PARP1 in chromatin fractions; format: cell-based, human; conditions: normalized to DMSO = 1, IR 7 Gy, replicates
Method: To identify suitable cell lines to test PARGi, we evaluated PARG protein expression patterns on a panel of prototypic cancer cell lines. Cells were fractionated into cytoplasmic, nuclear and chromatin, and then PARG expression and localization were evaluated using an anti-PARG antibody (Fig. 4a). A varying level of PARG was detected in three cellular compartments. In prostate adenocarcinoma (PC3) and breast mammary epithelial (MCF-7) cells, PARG level was the highest in the cytoplasm, followed by the nucleus, with the lowest seen in the chromatin fraction. […] The PC3 cell line, with one of the highest levels of PARG expression, was selected for our initial PARGi testing. PC3 cells were treated with either DMSO or JA2131 for 2 h, then exposed to 7 Gy of IR and allowed to recover for a designated time period before harvesting and cell fractionation. Chromatin fractions of the cell lysates were analyzed by immunoblotting with PARP1 specific antibody (Fig. 4b), and the PARylation states of PARP1 were monitored as a marker for PARG inhibition. […] In these cells, PARylated PARP1 in response to PARG inhibition appeared as a discrete HMW (DHMW) proteins with limited smearing, as observed previously. […] To assess whether DHMW was due to PARylation and not any other post-translational modifications, chromatin fractions of the PARGi-treated PC3 cell-lysates were treated with purified PARG, followed by anti-PARP1 western blotting. This led to the restoration of LMW PARP1, indicating PARylation was indeed causing the DHMW (Fig. 4c, d). Thus, a dynamic equilibrium between DHMW and LMW nuclear PARP1 exists in cells, and PARGi shifts this equilibrium towards DHMW.
Fig. 4 JA2131 induces hyperPARylation of PARP1. a Subcellular PARG protein expression patterns in cultured cells. […] Chromatin bound cell-extracts were analyzed with anti-PARP1 antibody (upper panel) followed by probing with total Histone H2AX (t-H2AX, lower panel) as the loading control. c DMSO or 2131-treated PC3 cells were irradiated and recovered for 2 h as above, chromatin fractions were then incubated with or without purified PARG enzyme (±PARG) for 30 min at 37 °C then immunoblotted with anti-PARP1 (upper panel) and then with anti-histone H3 (lower panel) as loading control. d Quantitative analysis of western blot of b, where expression of PARP1 levels in DMSO treated was normalized to 1. […]

[1] = Sulforhodamine B (SRB) cytotoxicity assay; conditions: human, A172 glioblastoma cells
Method: (§1) Normalized % viabilities are plotted against log concentration. Error bars show the percent coefficient of variation. […] Mann-Whitney test was used to generate the p-value. The DNA spread assay is the representation of two independently repeated experiments. Source Data are provided as a Source Data file.
(§2) Cells were plated in 96-well plates, treated as designated in reduced 5% FBS and fixed with trichloroacetic acid after 72 h, as previously described by[43]. […] Colorimetric or fluorescence analysis was performed in a FlexStation 3, using SoftMax Pro 7.0, Molecular Devices. Normalized graphs were generated with Prism 8 software, non-linear 4-parameter data fitting was performed for IC50 calculation.

A172 glioblastoma cells = experiment: Sulforhodamine B (SRB) cytotoxicity assay; conditions: Homo sapiens, A 172, 72 h
Method: as §1, §2

[2] = chromatin fraction incubated with purified PARG (+)

Cn1c(=S)c2[nH]c(SCCN3CCOCC3)nc2n(C)c1=O [JA2131]
HMW PARP1 (PC3 cells; [2]): 0.2746 and 0.8185 and 0.3259
LMW PARP1 (PC3 cells; [2]): 1.147 and 1.092 (2×)
HMW PARP1 (PC3 cells; without added purified PARG): 0.6751 and 1.387 and 4.419
LMW PARP1 (PC3 cells; without added purified PARG): 0.7041 and 0.9592 (2×)
viability at 72 h, 0.244 µM [1]: 100%
viability at 72 h, 0.488 µM [1]: 98.3%
viability at 72 h, 0.977 µM [1]: 99.4%
viability at 72 h, 1.95 µM [1]: 101%
viability at 72 h, 3.91 µM [1]: 104%
viability at 72 h, 7.82 µM [1]: 96.7%
viability at 72 h, 15.6 µM [1]: 95.9%
viability at 72 h, 31.3 µM [1]: 78.7%
viability at 72 h, 62.5 µM [1]: 53.3%
viability at 72 h, 125 µM [1]: 16.6%
viability at 72 h, 250 µM [1]: 14.4%
viability at 72 h, 500 µM [1]: 13.5%
IC50 (A172 glioblastoma cells): 55.3 ± 7.9 µM

Source: article PMC6906431, “Selective small molecule PARG inhibitor causes replication fork stalling and cancer cell death” (Nature Communications, 2019)
